# Assay results as given in patent EP0107890B1, “Mammalian PGRF” (THE SALK INSTITUTE FOR BIOLOGICAL STUDIES, priority 1982, dated 1986).
# Where no end group is shown, it is not given here.
# Columns and labels:
# [1] = test system: pituitary cells; assay: in vitro growth hormone release assay in rat pituitary cell cultures (immunoreactive GH by radioimmunoassay); type: cell-based
# Protocol: To determine the effectiveness of the peptides to promote the release of growth hormone, in vitro assays are carried out using synthetic PGRF(1-40) of Example II in side-by-side comparison with equimolar concentrations of the extracted and purified native PGRF (1-40) and of a GRF Reference Standard having a known effectiveness to promote the release of growth hormone from pituitary cells. The GRF Reference standard is described and defined in Brazeau, et al., Endocrinology, Vol. 110, A538(1982) and is an amount of a preparation of rat hypothalamic origin that produces a half-maximal response in terms of GH release in a pituitary cell monolayer bioassay. Cultures are used which include cells of rat pituitary glands removed some four to five days previously. Both cultures of a defined standard medium and cultures which are considered optimal for the secretion of growth hormone are used for the comparative testing, in the general manner described in Brazeau, et al. Regulatory Peptides, 1, 255, 1981. Incubation with the substance to be tested is carried out for 3 to 4 hours, and aliquots of the culture medium are removed and processed to measure their contents in immunoreactive GH(ir GH) by a well-characterized radioimmunoassay.
# [2] = test system: normal male rats; assay: in vivo secretion of pituitary growth hormone after injection into anesthetized rats; details: injected into rats
# Excerpt: In addition to the in vitro tests for secretion of growth hormone, in vivo experiments were also run by injecting the synthetic peptide into normal male rats about 200 g. body weight, anesthetized with pentobarbital.
substance,measurement,setting,value
"PGRF(1-40) (YADAIFTNSYRKVLGQLSARKLLQDIMSRQQGESNQERGA-OH; UniProt P01286 32-71, looked up, fragment) [Example II]",ED50,"[1]; GH release from rat pituitary cell cultures, incubation 3 to 4 hours",about 113 picograms
same,biological activity compared with the native peptide,"[1]; in equimolar ratios, versus extracted and purified native PGRF (1-40)",full biological activity of the native peptide
same,GH-releasing activity in vivo,[2],powerful stimulator of the secretion of pituitary growth hormone
